Data from PubChem BioAssay (NCI).
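Each compound was tested at five concentrations against cells in 96-well plates for 48 hours. TGI marks complete inhibition of growth.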

What was measured:
Assay in all cases: inhibition of tumour cell growth, NCI panel, 48 h
[1] = system: SK-MEL-5 melanoma
[2] = system: HCC-2998 colon
[3] = system: MOLT-4 leukemia
[4] = system: TK-10 renal
[5] = system: RPMI-8226 leukemia
[6] = system: HCT-116 colon
[7] = system: SNB-19 CNS
[8] = system: T-47D breast
[9] = system: OVCAR-8 ovarian
[10] = system: SF-539 CNS
[11] = system: EKVX NSCLC
[12] = system: SF-295 CNS
[13] = system: NCI-H226 lung
[14] = system: MDA-MB-231 breast
[15] = system: NCI-H460 lung
[16] = system: HOP-92 NSCLC

For O=C(Nc1ccc(C(F)(F)F)cc1)NC(F)(F)F, the TGI [1] was over 100 µM, the TGI [2] was over 100 µM and the TGI [3] was over 100 µM. The TGI [4] was over 100 µM, the TGI [5] was over 100 µM and the TGI [6] was over 100 µM. It also gave a TGI [7] of over 100 µM, a TGI [8] of over 100 µM and a TGI [9] of over 100 µM. It also gave a TGI [10] of over 100 µM and a TGI [11] of over 100 µM.
With CN=C1Nc2ccccc2C(=O)N2CSCC12 (stereo unspecified) the TGI [12] was over 100 µM, the TGI [1] was over 100 µM and the TGI [2] was over 100 µM. For the same molecule, the TGI [3] was over 100 µM, the TGI [13] was over 100 µM and the TGI [4] was over 100 µM. It also gave a TGI [5] of over 100 µM, a TGI [6] of over 100 µM and a TGI [7] of over 100 µM. It also gave a TGI [14] of over 100 µM, a TGI [8] of over 100 µM and a TGI [9] of over 100 µM. The TGI [15] was over 100 µM and the TGI [11] was over 100 µM.
With COc1ccc(S(=O)(=O)N2C(=O)CCC2C(=O)NC(N)=O)cc1 (stereo unspecified) the TGI [12] was over 100 µM, the TGI [1] was over 100 µM and the TGI [3] was over 100 µM. It also gave a TGI [16] of over 100 µM, a TGI [13] of over 100 µM and a TGI [4] of over 100 µM. It also gave a TGI [5] of over 100 µM, a TGI [6] of over 100 µM and a TGI [7] of over 100 µM. The TGI [14] was over 100 µM, the TGI [8] was over 100 µM and the TGI [9] was over 100 µM. For the same molecule, the TGI [10] was over 100 µM, the TGI [15] was over 100 µM and the TGI [11] was over 100 µM.
O=C1/C(=C\c2ccc(Cl)cc2)N=C(c2ccccc2)N1n1c(=O)cn[nH]c1=S showed a TGI [12] of over 100 µM, a TGI [1] of 55.3 µM and a TGI [2] of over 100 µM. It also gave a TGI [3] of 53.3 µM, a TGI [5] of 62.1 µM and a TGI [6] of over 100 µM. The TGI [7] was over 100 µM, the TGI [8] was 28.6 µM and the TGI [9] was 45.8 µM. The TGI [10] was over 100 µM, the TGI [15] was over 100 µM and the TGI [11] was over 100 µM.
O=C1C2C(C(=O)N1c1ccccc1)C1(c3ccccc3)CCC2(C(=O)c2ccccc2)O1 (stereo unspecified) was tested, and the TGI [12] was over 10 µM, the TGI [1] was over 10 µM and the TGI [2] was over 10 µM. The TGI [3] was over 10 µM, the TGI [4] was over 10 µM and the TGI [5] was over 10 µM. The TGI [6] was over 10 µM, the TGI [7] was over 10 µM and the TGI [14] was over 10 µM. The TGI [8] was over 10 µM, the TGI [9] was over 10 µM and the TGI [10] was over 10 µM. The TGI [15] was over 10 µM and the TGI [11] was over 10 µM.
N#CC12C(=O)N3C(=NC(c4ccco4)NC3c3ccco3)C1(C#N)C(c1ccco1)NC1=C2CCCC1 (stereo unspecified) gave a TGI [12] of over 100 µM, a TGI [1] of over 100 µM and a TGI [2] of over 100 µM. It also gave a TGI [3] of over 100 µM, a TGI [16] of over 100 µM and a TGI [13] of over 100 µM. The TGI [4] was over 100 µM, the TGI [5] was over 100 µM and the TGI [6] was over 100 µM. The TGI [7] was over 100 µM, the TGI [14] was over 100 µM and the TGI [8] was over 100 µM. The TGI [9] was over 100 µM, the TGI [15] was over 100 µM and the TGI [11] was over 100 µM.
CCOCCOCCOCc1nc(C#N)c(N)o1 gave a TGI [12] of over 100 µM, a TGI [1] of over 100 µM and a TGI [2] of over 100 µM. For the same molecule, the TGI [3] was over 100 µM, the TGI [13] was over 100 µM and the TGI [4] was over 100 µM. It also gave a TGI [5] of over 100 µM, a TGI [6] of over 100 µM and a TGI [14] of over 100 µM. The TGI [8] was over 100 µM, the TGI [9] was over 100 µM and the TGI [10] was over 100 µM. For the same molecule, the TGI [15] was over 100 µM and the TGI [11] was over 100 µM.
In the case of O=c1oc2ccc3ccccc3c2cc1-c1nnc(Nc2ccccc2)s1, the TGI [12] is reported as 83.3 µM, the TGI [2] is reported as over 100 µM and the TGI [3] is reported as over 100 µM. For the same molecule, the TGI [4] was 32.1 µM, the TGI [5] was 50.9 µM and the TGI [6] was 52.4 µM. It also gave a TGI [7] of 65.4 µM, a TGI [14] of 35.1 µM and a TGI [8] of over 100 µM. The TGI [15] was 42.3 µM and the TGI [11] was over 100 µM.
